ChEMBL document CHEMBL4507268 (2021)

Columns and labels:
[1] = biological target: Protein kinase C alpha type (Homo sapiens) (UniProt P17252); conditions: Compound concentration 1.0 uM
[2] = biological target: T1, Discoidin domain-containing receptor 2 (Homo sapiens) (UniProt Q16832); conditions: Compound concentration 1.0 uM
T1 sequence (whole entry): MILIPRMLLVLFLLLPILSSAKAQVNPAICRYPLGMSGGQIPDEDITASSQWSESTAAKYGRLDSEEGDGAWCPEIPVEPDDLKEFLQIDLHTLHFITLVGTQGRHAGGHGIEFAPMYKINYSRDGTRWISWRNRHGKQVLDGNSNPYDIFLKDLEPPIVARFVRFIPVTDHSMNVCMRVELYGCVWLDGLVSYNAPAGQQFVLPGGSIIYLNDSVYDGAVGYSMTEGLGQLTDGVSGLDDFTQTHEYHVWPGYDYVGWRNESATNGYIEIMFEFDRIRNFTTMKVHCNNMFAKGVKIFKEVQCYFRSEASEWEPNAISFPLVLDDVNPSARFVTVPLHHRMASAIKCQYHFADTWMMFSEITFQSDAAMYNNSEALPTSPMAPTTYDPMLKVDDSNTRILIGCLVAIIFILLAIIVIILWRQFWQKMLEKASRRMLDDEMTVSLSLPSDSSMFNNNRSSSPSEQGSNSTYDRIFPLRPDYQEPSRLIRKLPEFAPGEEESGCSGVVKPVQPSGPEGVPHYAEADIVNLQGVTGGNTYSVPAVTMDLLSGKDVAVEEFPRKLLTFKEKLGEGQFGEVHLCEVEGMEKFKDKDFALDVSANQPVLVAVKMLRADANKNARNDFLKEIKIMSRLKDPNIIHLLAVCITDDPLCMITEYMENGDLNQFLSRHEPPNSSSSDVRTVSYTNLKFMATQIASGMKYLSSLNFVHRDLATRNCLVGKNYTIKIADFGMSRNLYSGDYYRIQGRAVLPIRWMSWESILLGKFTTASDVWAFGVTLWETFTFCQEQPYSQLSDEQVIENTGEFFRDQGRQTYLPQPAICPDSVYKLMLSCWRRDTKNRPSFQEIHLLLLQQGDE

[3] = biological target: Death-associated protein kinase 1 (Homo sapiens) (UniProt P53355); conditions: Compound concentration 1.0 uM
Chain of Death-associated protein kinase 1 (Homo sapiens) (P53355 whole entry, looked up): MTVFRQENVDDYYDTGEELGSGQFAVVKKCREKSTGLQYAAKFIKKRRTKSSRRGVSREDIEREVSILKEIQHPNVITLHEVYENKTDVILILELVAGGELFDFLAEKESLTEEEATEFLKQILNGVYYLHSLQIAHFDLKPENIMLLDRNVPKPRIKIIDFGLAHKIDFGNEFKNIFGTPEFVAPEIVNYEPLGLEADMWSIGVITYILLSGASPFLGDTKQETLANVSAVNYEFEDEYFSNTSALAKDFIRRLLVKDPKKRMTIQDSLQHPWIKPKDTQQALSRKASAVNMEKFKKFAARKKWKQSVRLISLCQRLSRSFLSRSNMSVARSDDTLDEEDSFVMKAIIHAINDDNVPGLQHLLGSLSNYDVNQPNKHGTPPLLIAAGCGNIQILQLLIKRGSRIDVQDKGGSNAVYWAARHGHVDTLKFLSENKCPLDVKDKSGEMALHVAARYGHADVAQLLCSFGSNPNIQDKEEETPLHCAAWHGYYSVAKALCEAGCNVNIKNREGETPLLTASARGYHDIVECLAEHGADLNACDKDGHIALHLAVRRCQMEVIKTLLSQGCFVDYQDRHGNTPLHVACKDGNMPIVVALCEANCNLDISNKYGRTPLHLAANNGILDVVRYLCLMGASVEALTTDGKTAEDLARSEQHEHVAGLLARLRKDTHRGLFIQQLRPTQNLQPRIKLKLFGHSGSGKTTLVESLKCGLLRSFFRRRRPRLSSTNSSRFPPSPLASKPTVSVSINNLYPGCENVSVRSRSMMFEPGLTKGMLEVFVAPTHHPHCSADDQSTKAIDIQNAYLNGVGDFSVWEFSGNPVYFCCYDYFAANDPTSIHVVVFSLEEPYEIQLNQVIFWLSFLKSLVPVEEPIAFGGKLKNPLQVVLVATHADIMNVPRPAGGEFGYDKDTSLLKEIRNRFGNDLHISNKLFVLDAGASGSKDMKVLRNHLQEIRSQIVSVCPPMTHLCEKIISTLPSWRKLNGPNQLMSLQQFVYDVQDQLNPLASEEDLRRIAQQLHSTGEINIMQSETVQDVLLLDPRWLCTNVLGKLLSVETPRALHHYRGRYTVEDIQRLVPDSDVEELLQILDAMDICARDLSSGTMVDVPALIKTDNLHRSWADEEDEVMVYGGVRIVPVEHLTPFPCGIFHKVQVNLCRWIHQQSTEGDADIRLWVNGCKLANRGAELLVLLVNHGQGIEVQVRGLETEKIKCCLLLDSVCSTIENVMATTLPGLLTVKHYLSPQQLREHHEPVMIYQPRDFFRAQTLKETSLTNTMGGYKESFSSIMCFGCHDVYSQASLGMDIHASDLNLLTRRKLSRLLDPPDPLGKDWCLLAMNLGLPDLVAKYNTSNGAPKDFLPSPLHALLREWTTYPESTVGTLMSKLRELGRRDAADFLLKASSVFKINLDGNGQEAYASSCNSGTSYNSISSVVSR

[4] = biological target: Serine/threonine-protein kinase SIK2 (Homo sapiens) (UniProt Q9H0K1); conditions: Compound concentration 1.0 uM
[5] = biological target: Calcium/calmodulin-dependent protein kinase type 1G (Homo sapiens) (UniProt Q96NX5); conditions: Compound concentration 1.0 uM
Chain of Calcium/calmodulin-dependent protein kinase type 1G (Homo sapiens) (Q96NX5 whole entry): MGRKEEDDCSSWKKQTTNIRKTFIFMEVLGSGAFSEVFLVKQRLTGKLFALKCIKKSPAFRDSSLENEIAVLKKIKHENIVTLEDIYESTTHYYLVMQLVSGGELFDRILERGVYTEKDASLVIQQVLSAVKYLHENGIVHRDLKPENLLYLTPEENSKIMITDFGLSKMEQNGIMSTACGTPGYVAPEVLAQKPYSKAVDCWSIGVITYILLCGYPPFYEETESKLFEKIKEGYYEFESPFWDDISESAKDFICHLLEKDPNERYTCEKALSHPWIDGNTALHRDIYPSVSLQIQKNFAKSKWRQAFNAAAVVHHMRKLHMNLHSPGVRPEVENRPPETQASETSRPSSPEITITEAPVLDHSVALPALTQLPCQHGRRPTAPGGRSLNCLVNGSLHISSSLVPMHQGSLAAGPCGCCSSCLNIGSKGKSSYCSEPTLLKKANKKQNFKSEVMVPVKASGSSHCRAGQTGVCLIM

[6] = biological target: T2, NUAK family SNF1-like kinase 2 (Homo sapiens) (UniProt Q9H093); conditions: Compound concentration 1.0 uM
T2 sequence (whole entry): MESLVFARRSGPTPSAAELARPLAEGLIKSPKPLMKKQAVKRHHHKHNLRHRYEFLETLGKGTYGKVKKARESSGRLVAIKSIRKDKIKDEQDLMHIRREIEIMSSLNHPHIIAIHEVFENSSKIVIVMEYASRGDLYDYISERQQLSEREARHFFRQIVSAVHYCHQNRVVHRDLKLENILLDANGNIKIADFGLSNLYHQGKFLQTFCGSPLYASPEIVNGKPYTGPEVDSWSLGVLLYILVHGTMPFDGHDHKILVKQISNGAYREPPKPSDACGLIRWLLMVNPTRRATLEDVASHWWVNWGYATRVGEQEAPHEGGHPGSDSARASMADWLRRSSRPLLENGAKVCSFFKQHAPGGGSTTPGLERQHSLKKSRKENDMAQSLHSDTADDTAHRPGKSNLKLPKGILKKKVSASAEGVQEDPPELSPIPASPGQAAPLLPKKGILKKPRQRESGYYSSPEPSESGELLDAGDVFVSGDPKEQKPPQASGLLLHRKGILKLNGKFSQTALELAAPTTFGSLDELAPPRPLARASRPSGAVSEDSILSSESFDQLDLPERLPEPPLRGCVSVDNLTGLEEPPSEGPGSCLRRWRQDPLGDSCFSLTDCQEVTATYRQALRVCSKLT

[7] = biological target: Dual specificity tyrosine-phosphorylation-regulated kinase 1B (Homo sapiens) (UniProt Q9Y463); conditions: Compound concentration 1.0 uM
Chain of Dual specificity tyrosine-phosphorylation-regulated kinase 1B (Homo sapiens) (Q9Y463 whole entry, looked up): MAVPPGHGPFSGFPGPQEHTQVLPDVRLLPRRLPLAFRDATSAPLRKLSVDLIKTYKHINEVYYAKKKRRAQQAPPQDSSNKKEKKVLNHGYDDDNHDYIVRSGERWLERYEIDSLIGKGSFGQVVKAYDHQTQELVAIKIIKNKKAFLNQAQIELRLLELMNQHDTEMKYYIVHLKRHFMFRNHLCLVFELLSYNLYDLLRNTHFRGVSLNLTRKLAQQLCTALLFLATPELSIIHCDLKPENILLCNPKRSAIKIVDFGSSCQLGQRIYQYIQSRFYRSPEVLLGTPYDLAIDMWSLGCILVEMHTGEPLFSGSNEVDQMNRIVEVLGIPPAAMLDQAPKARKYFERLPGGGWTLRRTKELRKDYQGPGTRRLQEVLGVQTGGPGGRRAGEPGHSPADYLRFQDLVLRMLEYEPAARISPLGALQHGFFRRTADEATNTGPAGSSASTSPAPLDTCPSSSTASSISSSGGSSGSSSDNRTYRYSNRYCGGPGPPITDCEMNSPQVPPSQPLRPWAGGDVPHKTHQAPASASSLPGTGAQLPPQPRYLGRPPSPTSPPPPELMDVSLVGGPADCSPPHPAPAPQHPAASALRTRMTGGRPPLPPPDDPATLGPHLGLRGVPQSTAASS

[8] = biological target: Phosphatidylinositol 4-phosphate 5-kinase type-1 gamma (Homo sapiens) (UniProt O60331); conditions: Compound concentration 1.0 uM
Chain of Phosphatidylinositol 4-phosphate 5-kinase type-1 gamma (Homo sapiens) (O60331 whole entry): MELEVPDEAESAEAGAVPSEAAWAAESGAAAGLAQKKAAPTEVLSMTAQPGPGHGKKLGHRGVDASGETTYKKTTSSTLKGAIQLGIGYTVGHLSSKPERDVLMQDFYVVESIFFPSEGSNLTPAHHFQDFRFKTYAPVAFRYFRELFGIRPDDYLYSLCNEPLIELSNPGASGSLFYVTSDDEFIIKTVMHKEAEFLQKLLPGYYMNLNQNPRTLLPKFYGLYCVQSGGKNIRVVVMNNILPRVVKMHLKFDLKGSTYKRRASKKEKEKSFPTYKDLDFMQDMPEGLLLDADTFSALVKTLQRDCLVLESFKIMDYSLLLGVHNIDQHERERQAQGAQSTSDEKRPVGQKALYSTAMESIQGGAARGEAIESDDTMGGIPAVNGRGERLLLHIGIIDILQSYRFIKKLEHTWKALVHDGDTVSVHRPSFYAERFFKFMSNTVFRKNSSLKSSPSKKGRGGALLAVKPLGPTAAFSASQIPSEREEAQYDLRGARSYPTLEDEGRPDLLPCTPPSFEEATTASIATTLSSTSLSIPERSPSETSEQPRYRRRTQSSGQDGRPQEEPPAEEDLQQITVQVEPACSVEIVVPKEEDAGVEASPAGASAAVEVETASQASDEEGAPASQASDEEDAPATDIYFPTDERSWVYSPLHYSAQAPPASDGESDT

[9] = biological target: ATR/ATRIP (Homo sapiens) (UniProt Q13535+Q8WXE1); conditions: Compound concentration 1.0 uM
[10] = biological target: T3, Serine/threonine-protein kinase D1 (Homo sapiens) (UniProt Q15139); conditions: Compound concentration 1.0 uM
T3 sequence (whole entry): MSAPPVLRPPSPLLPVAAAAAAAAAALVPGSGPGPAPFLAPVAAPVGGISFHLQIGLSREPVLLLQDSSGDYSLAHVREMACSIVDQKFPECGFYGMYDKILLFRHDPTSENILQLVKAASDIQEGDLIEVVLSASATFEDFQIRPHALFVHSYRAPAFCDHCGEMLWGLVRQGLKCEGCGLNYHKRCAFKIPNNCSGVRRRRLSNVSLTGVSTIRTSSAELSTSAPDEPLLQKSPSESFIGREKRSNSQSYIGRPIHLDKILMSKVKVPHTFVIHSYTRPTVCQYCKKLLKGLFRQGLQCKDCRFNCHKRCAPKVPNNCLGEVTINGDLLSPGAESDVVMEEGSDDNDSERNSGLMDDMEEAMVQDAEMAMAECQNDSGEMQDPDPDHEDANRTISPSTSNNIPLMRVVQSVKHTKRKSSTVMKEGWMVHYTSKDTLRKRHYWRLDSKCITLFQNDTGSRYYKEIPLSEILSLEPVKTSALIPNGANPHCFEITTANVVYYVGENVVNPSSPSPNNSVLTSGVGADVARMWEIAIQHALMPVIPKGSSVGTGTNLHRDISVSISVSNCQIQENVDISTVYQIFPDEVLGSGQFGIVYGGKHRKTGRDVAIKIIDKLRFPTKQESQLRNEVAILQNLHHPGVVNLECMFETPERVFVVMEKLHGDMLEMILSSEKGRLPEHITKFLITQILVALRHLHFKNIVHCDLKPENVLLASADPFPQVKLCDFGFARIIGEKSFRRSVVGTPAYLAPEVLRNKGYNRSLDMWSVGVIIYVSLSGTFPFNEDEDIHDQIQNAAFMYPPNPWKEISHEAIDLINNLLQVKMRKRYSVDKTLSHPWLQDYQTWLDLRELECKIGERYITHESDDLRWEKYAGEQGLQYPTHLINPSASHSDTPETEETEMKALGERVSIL

[11] = biological target: Phosphorylase b kinase gamma catalytic chain, skeletal muscle/heart isoform (Homo sapiens) (UniProt Q16816); conditions: Compound concentration 1.0 uM
Chain of Phosphorylase b kinase gamma catalytic chain, skeletal muscle/heart isoform (Homo sapiens) (Q16816 whole entry, looked up, canonical isoform): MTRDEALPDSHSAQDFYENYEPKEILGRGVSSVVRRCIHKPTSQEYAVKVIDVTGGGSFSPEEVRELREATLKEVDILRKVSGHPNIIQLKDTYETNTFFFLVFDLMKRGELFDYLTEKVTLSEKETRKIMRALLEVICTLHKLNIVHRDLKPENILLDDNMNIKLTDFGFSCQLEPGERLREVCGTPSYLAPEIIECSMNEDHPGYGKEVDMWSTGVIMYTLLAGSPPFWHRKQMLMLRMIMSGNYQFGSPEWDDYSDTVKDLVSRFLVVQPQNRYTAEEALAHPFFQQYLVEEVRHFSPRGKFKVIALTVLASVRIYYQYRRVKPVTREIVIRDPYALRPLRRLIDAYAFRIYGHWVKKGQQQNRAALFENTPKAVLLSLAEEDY

[12] = biological target: Sodium-dependent noradrenaline transporter (Homo sapiens) (UniProt P23975); conditions: Compound concentration 10.0 uM
Chain of Sodium-dependent noradrenaline transporter (Homo sapiens) (P23975 whole entry): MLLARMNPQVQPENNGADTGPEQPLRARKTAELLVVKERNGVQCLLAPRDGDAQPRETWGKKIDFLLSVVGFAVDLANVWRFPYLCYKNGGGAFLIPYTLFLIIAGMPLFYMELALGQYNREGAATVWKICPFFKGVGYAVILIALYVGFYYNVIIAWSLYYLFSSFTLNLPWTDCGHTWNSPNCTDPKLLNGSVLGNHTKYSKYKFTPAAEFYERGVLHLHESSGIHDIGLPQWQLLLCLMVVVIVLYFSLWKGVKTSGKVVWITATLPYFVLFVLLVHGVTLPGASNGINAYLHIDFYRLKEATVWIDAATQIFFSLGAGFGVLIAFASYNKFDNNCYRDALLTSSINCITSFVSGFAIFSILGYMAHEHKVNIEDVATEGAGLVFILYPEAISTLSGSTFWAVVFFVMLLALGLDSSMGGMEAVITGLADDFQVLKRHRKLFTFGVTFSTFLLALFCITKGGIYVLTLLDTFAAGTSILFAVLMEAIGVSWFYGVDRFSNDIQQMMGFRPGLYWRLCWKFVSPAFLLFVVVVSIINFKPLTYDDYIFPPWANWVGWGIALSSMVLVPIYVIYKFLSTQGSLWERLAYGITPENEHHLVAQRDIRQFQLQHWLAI

CN1CCN(c2cnc3c(C4CCN(C(=O)c5ccc(OC(F)(F)F)cc5N)CC4)ncnc3c2)CC1 [BAY-885]
inactive: % residual kinase activity [1] 107% | % residual kinase activity [2] 104% | % residual kinase activity [3] 109% | % residual kinase activity [4] 101% | % residual kinase activity [5] 103% | % residual kinase activity [6] 111% | % residual kinase activity [7] 106% | % residual kinase activity [8] 93% | % residual kinase activity [9] 100% | % residual kinase activity [10] 127% | % residual kinase activity [11] 103%

Cc1nc(C2CCN(C(=O)c3ccc(OC(F)(F)F)cc3N)CC2)c2ncc(N3CCN(C)CC3)cc2n1 [BAY-693]
inactive: inhibition [12] 24.6%
